Test results from BindingDB's records for doi:10.1016/S0960-894X(01)80688-0 (1994).

Legend:
[1] = Inhibitory activity was determined against almonds Beta-glucosidase
[2] = Inhibitory activity was determined against bovine liver beta galactosidase
[3] = Inhibitory activity was determined against Escherichia coli beta galactosidase

| SMILES | IC50 [1] | IC50 [2] | IC50 [3] |
| --- | --- | --- | --- |
| OCC1C(O)C(O)C2OC(Nc3ccccc3)=NC12 (stereo unspecified) [4-Hydroxymethyl-2-phenylamino-4,5,6,6a-tetrahydro-3aH-cyclopentaoxazole-5,6-diol] | > 300 µM | 3 µM | > 300 µM |
| OCC1(O)C(O)C(O)C2N=C(Nc3ccccc3)OC21 (stereo unspecified) [6-Hydroxymethyl-2-phenylamino-4,5,6,6a-tetrahydro-3aH-cyclopentaoxazole-4,5,6-triol] | > 300 µM | 153 µM | > 300 µM |
